Where two headings read alike, the source gives them in different places.
Test: Single dose PK in healthy subjects (Cohorts 1, 2, S1 and S2), plasma
Format: in vivo, human
Conditions: human, plasma, iv, healthy subjects
Method: This study investigates (i) the safety and tolerability of Compound A (methyl (2R,3S)-3-((methylsulfonyl)amino)-2-(((cis-4-phenylcyclohexyl)oxy)methyl)piperidine-1-carboxylate) when a single dose given as a 9 hour continuous IV infusion is administered to healthy adults, healthy elderly subjects and patients with narcolepsy type 1 (NT1); (ii) the pharmacokinetics of Compound A when a single dose given as a 9 hour continuous IV infusion is administered to healthy adults, healthy elderly subjects and patients with narcolepsy type 1; and (iii) the pharmacodynamics (PD) effects of Compound A, primarily by evaluation of the sleep latency on MWT when a single dose given as a 9 hour continuous IV infusion is administered to patients with narcolepsy type 1.
Pharmacokinetics: Concentrations of Compound A in plasma, and CSF, and pharmacokinetics parameters.
On average, the time to reach the plateau appeared to be approximately 3 to 4 hours after the start of infusion. […] After switching off the IV infusion, Compound A plasma concentrations declined rapidly and in a biphasic manner with a mean terminal disposition phase t1/2z ranging approximately from 3.4 to 5.1 hours across all doses. […] Table 5 provides a summary of plasma concentrations of Compound A after a single IV infusion in healthy subjects. Table 6 provides a summary of pharmacokinetic parameters of Compound A after a single IV infusion in healthy subjects.

SMILES: COC(=O)N1CCC[C@H](NS(C)(=O)=O)[C@@H]1CO[C@H]1CC[C@@H](c2ccccc2)CC1 [Compound A, methyl (2R,3S)-3-((methylsulfonyl)amino)-2-(((cis-4-phenylcyclohexyl)oxy)methyl)piperidine-1-carboxylate]
- AUC(0-inf) (14 mg, 14 mg single IV infusion, read-out: AUCinf Median): 322 ng·h/mL
- AUC(0-t) (14 mg, 14 mg single IV infusion, read-out: AUClast Geo Mean): 323 ng·h/mL
- AUC(0-t) (14 mg, 14 mg single IV infusion, read-out: AUClast Mean): 326 ng·h/mL
- AUC(0-t) (14 mg, 14 mg single IV infusion, read-out: AUClast Median): 322 ng·h/mL
- clearance (14 mg, 14 mg single IV infusion, read-out: CL Mean (converted)): 718 mL/min
- clearance (14 mg, 14 mg single IV infusion, read-out: CL Median (converted)): 723 mL/min
- concentration at 9 h (14 mg, 14 mg single IV infusion, read-out: Ceoi Geo Mean): 29.8 ng/mL
- concentration at 9 h (14 mg, 14 mg single IV infusion, read-out: Ceoi Mean): 30.1 ng/mL
- concentration at 9 h (14 mg, 14 mg single IV infusion, read-out: Ceoi Median): 30.8 ng/mL
- Cmax (14 mg, 14 mg single IV infusion, read-out: Cmax Geo Mean): 36.8 ng/mL
- Cmax (14 mg, 14 mg single IV infusion, read-out: Cmax Mean): 37 ng/mL
- Cmax (14 mg, 14 mg single IV infusion, read-out: Cmax Median): 37 ng/mL
- Vd (14 mg, 14 mg single IV infusion, read-out: Vss Mean): 77.1 L
- Vd (14 mg, 14 mg single IV infusion, read-out: Vss Median): 72.7 L
- Vd (14 mg, 14 mg single IV infusion, read-out: Vz Mean): 272 L
- Vd (14 mg, 14 mg single IV infusion, read-out: Vz Median): 253 L
- Tmax (14 mg, 14 mg single IV infusion, read-out: tmax Mean): 3.67 h
- Tmax (14 mg, 14 mg single IV infusion, read-out: tmax Median): 4 h
- AUC (28 mg, 28 mg single IV infusion, read-out: AUC24 Geo Mean): 513 ng·h/mL
- AUC (28 mg, 28 mg single IV infusion, read-out: AUC24 Mean): 519 ng·h/mL
- AUC (28 mg, 28 mg single IV infusion, read-out: AUC24 Median): 543 ng·h/mL
- AUC(0-inf) (28 mg, 28 mg single IV infusion, read-out: AUCinf Geo Mean): 524 ng·h/mL
- AUC(0-inf) (28 mg, 28 mg single IV infusion, read-out: AUCinf Mean): 530 ng·h/mL
- AUC(0-inf) (28 mg, 28 mg single IV infusion, read-out: AUCinf Median): 549 ng·h/mL
- AUC(0-t) (28 mg, 28 mg single IV infusion, read-out: AUClast Geo Mean): 513 ng·h/mL
- AUC(0-t) (28 mg, 28 mg single IV infusion, read-out: AUClast Mean): 519 ng·h/mL
- AUC(0-t) (28 mg, 28 mg single IV infusion, read-out: AUClast Median): 543 ng·h/mL
- clearance (28 mg, 28 mg single IV infusion, read-out: CL Mean (converted)): 903 mL/min
- clearance (28 mg, 28 mg single IV infusion, read-out: CL Median (converted)): 850 mL/min
- concentration at 9 h (28 mg, 28 mg single IV infusion, read-out: Ceoi Geo Mean): 52.1 ng/mL
- concentration at 9 h (28 mg, 28 mg single IV infusion, read-out: Ceoi Mean): 52.5 ng/mL
- concentration at 9 h (28 mg, 28 mg single IV infusion, read-out: Ceoi Median): 55.3 ng/mL
- Cmax (28 mg, 28 mg single IV infusion, read-out: Cmax Geo Mean): 57.6 ng/mL
- Cmax (28 mg, 28 mg single IV infusion, read-out: Cmax Mean): 58.1 ng/mL
- Cmax (28 mg, 28 mg single IV infusion, read-out: Cmax Median): 59.3 ng/mL
- Vd (28 mg, 28 mg single IV infusion, read-out: Vss Mean): 116 L
- Vd (28 mg, 28 mg single IV infusion, read-out: Vss Median): 105 L
- Vd (28 mg, 28 mg single IV infusion, read-out: Vz Mean): 392 L
- Vd (28 mg, 28 mg single IV infusion, read-out: Vz Median): 406 L
- Tmax (28 mg, 28 mg single IV infusion, read-out: tmax Mean): 3 h
- Tmax (28 mg, 28 mg single IV infusion, read-out: tmax Median): 3 h
- AUC (56 mg, 56 mg single IV infusion, read-out: AUC24 Geo Mean): 1060 ng·h/mL
- AUC (56 mg, 56 mg single IV infusion, read-out: AUC24 Mean): 1070 ng·h/mL
- AUC (56 mg, 56 mg single IV infusion, read-out: AUC24 Median): 1040 ng·h/mL
- AUC(0-inf) (56 mg, 56 mg single IV infusion, read-out: AUCinf Geo Mean): 1060 ng·h/mL
- AUC(0-inf) (56 mg, 56 mg single IV infusion, read-out: AUCinf Mean): 1080 ng·h/mL
- AUC(0-inf) (56 mg, 56 mg single IV infusion, read-out: AUCinf Median): 1050 ng·h/mL
- AUC(0-t) (56 mg, 56 mg single IV infusion, read-out: AUClast Geo Mean): 1060 ng·h/mL
- AUC(0-t) (56 mg, 56 mg single IV infusion, read-out: AUClast Mean): 1070 ng·h/mL
- AUC(0-t) (56 mg, 56 mg single IV infusion, read-out: AUClast Median): 1040 ng·h/mL
- clearance (56 mg, 56 mg single IV infusion, read-out: CL Mean (converted)): 885 mL/min
- clearance (56 mg, 56 mg single IV infusion, read-out: CL Median (converted)): 891 mL/min
- concentration at 9 h (56 mg, 56 mg single IV infusion, read-out: Ceoi Geo Mean): 115 ng/mL
- concentration at 9 h (56 mg, 56 mg single IV infusion, read-out: Ceoi Mean): 115 ng/mL
- concentration at 9 h (56 mg, 56 mg single IV infusion, read-out: Ceoi Median): 112 ng/mL
- Cmax (56 mg, 56 mg single IV infusion, read-out: Cmax Geo Mean): 123 ng/mL
- Cmax (56 mg, 56 mg single IV infusion, read-out: Cmax Mean): 123 ng/mL
- Cmax (56 mg, 56 mg single IV infusion, read-out: Cmax Median): 122 ng/mL
- Vd (56 mg, 56 mg single IV infusion, read-out: Vss Mean): 91.4 L
- Vd (56 mg, 56 mg single IV infusion, read-out: Vss Median): 89.1 L
- Vd (56 mg, 56 mg single IV infusion, read-out: Vz Mean): 291 L
- Vd (56 mg, 56 mg single IV infusion, read-out: Vz Median): 282 L
- Tmax (56 mg, 56 mg single IV infusion, read-out: tmax Mean): 4.5 h
- Tmax (56 mg, 56 mg single IV infusion, read-out: tmax Median): 4 h
- AUC (112 mg, 112 mg single IV infusion, read-out: AUC24 Geo Mean): 2070 ng·h/mL
- AUC (112 mg, 112 mg single IV infusion, read-out: AUC24 Mean): 2090 ng·h/mL
- AUC (112 mg, 112 mg single IV infusion, read-out: AUC24 Median): 2130 ng·h/mL
- AUC(0-inf) (112 mg, 112 mg single IV infusion, read-out: AUCinf Geo Mean): 2090 ng·h/mL
- AUC(0-inf) (112 mg, 112 mg single IV infusion, read-out: AUCinf Mean): 2110 ng·h/mL
- AUC(0-inf) (112 mg, 112 mg single IV infusion, read-out: AUCinf Median): 2160 ng·h/mL
- AUC(0-t) (112 mg, 112 mg single IV infusion, read-out: AUClast Geo Mean): 2070 ng·h/mL
- AUC(0-t) (112 mg, 112 mg single IV infusion, read-out: AUClast Mean): 2090 ng·h/mL
- AUC(0-t) (112 mg, 112 mg single IV infusion, read-out: AUClast Median): 2130 ng·h/mL
- clearance (112 mg, 112 mg single IV infusion, read-out: CL Mean (converted)): 902 mL/min
- clearance (112 mg, 112 mg single IV infusion, read-out: CL Median (converted)): 867 mL/min
- concentration at 9 h (112 mg, 112 mg single IV infusion, read-out: Ceoi Geo Mean): 214 ng/mL
- concentration at 9 h (112 mg, 112 mg single IV infusion, read-out: Ceoi Mean): 216 ng/mL
- concentration at 9 h (112 mg, 112 mg single IV infusion, read-out: Ceoi Median): 221 ng/mL
- Cmax (112 mg, 112 mg single IV infusion, read-out: Cmax Geo Mean): 235 ng/mL
- Cmax (112 mg, 112 mg single IV infusion, read-out: Cmax Mean): 238 ng/mL
- Cmax (112 mg, 112 mg single IV infusion, read-out: Cmax Median): 250 ng/mL
- Vd (112 mg, 112 mg single IV infusion, read-out: Vss Mean): 97.8 L
- Vd (112 mg, 112 mg single IV infusion, read-out: Vss Median): 104 L
- Vd (112 mg, 112 mg single IV infusion, read-out: Vz Mean): 289 L
- Vd (112 mg, 112 mg single IV infusion, read-out: Vz Median): 301 L
- Tmax (112 mg, 112 mg single IV infusion, read-out: tmax Mean): 4.25 h
- Tmax (112 mg, 112 mg single IV infusion, read-out: tmax Median): 4 h
- AUC (134.4 mg, 134.4 mg single IV infusion, read-out: AUC24 Geo Mean): 2660 ng·h/mL
- AUC (134.4 mg, 134.4 mg single IV infusion, read-out: AUC24 Mean): 2690 ng·h/mL
- AUC (134.4 mg, 134.4 mg single IV infusion, read-out: AUC24 Median): 2670 ng·h/mL
- AUC(0-inf) (134.4 mg, 134.4 mg single IV infusion, read-out: AUCinf Geo Mean): 2680 ng·h/mL
- AUC(0-inf) (134.4 mg, 134.4 mg single IV infusion, read-out: AUCinf Mean): 2720 ng·h/mL
- AUC(0-inf) (134.4 mg, 134.4 mg single IV infusion, read-out: AUCinf Median): 2680 ng·h/mL
- AUC(0-t) (134.4 mg, 134.4 mg single IV infusion, read-out: AUClast Geo Mean): 2660 ng·h/mL
- AUC(0-t) (134.4 mg, 134.4 mg single IV infusion, read-out: AUClast Mean): 2690 ng·h/mL
- AUC(0-t) (134.4 mg, 134.4 mg single IV infusion, read-out: AUClast Median): 2670 ng·h/mL
- clearance (134.4 mg, 134.4 mg single IV infusion, read-out: CL Mean (converted)): 848 mL/min
- clearance (134.4 mg, 134.4 mg single IV infusion, read-out: CL Median (converted)): 839 mL/min
- concentration at 9 h (134.4 mg, 134.4 mg single IV infusion, read-out: Ceoi Geo Mean): 290 ng/mL
- concentration at 9 h (134.4 mg, 134.4 mg single IV infusion, read-out: Ceoi Mean): 292 ng/mL
- concentration at 9 h (134.4 mg, 134.4 mg single IV infusion, read-out: Ceoi Median): 300 ng/mL

Source: patent publication US20220339143A1, “TAK-925 FOR USE IN TREATING NARCOLEPSY” (Takeda Pharmaceutical Company Limited, priority 2019, published 2022)
